Structures are written as SMILES.

The experiment has as its target T1, human glycine transporter-2 (GlyT2) (Homo sapiens, UniProt Q9Y345).
T1 construct: The entire coding region of the human GlyT2 cDNA was cloned into the mammalian expression vector pClNeo; expressed in transfected cells; host or cells: Cos-7 cells (African green monkey kidney, ATCC), stably transfected, G418-selected; vector pClNeo
T1 sequence (Q9Y345 1-797): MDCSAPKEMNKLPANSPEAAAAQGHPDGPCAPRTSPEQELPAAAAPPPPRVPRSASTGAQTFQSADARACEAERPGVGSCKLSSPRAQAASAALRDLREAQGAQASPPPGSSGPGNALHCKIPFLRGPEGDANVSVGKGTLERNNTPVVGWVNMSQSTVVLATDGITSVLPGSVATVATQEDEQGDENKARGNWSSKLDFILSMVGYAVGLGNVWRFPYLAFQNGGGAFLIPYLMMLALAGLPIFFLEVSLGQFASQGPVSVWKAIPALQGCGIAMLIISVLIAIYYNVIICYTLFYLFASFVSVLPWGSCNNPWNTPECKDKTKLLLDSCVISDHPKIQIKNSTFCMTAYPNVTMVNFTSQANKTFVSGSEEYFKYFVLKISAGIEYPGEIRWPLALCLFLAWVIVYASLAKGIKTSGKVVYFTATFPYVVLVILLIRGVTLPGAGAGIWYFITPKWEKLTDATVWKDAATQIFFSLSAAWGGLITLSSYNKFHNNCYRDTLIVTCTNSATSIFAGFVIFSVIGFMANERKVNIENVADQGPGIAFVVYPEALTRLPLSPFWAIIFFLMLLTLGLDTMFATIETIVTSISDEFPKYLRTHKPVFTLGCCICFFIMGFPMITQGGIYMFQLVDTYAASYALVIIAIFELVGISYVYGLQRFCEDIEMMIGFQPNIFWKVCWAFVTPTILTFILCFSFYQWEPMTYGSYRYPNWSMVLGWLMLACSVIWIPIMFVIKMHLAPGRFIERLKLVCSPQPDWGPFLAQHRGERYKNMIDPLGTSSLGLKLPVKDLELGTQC
The experiment can be described thus: Inhibition of [14C]-glycine uptake in COS-7 cells transfected with human GlyT2. The class given is cell-based. The conditions noted are these: Table 2, 20 μM, 2 h at 37° C., Cos-7 cells stably transfected with human GlyT2. How it is done:
GlyT2 antagonist activity of representative compounds of the invention was determined in accordance with the assay described in the Examples and by measuring the ability of compounds to inhibit the uptake of [^14C]-glycine in COS-7 cells transfected with the human glycine transporter-2 (GlyT2). The GlyT2 antagonist activities of these representative compounds are set forth hereinafter in Table 1.
Cos-7 cells (African green monkey, kidney) from American Type Culture Collection were grown in DMEM supplemented with 10% fetal bovine serum. The entire coding region of the human GlyT2 cDNA was cloned into the mammalian expression vector pClNeo, and then stably transfected into Cos-7 cells. Transfection was performed essentially as described by T. W. Lovenberg et al. (Mol. Pharmacol. 1999, 55:1101–1107): Briefly, cells were grown to 70–80% confluence, removed from the plate with trypsin, and pelleted in a clinical centrifuge. The pellet was resuspended in 400 μL complete medium and transferred to an electroporation cuvette with a 0.4 cm gap between the electrodes (Bio-Rad, 165–2088). One microgram of supercoiled GlyT2 cDNA was added to the cells, and the suspension was mixed. The voltage for the electroporation was set at 0.25 kV, and the capacitance was set at 960 μF. After electroporation, the cuvette contents were diluted to 10 mL with complete medium, and 0.5 mL, 1.0 mL, 2.0 mL and remainder (˜6.5 mL) portions were plated onto four 10-cm dishes. The cells were incubated 24 h before adding 600 μg/mL G418. Colonies that survived selection were isolated and tested for GlyT2 expression.
The day before the assay, the GlyT2 expressing cells were plated into 96-well scintillating microplates (Amersham, RPNQ 0160) at a density of approximately 20,000 cells per well. Cells were grown overnight at 37° C. in 5% CO2 and then washed once with 37° C. HEPES buffered saline (HBS: 150 mM NaCl, 20 mM HEPES, 1 mM CaCl2, 10 mM glucose, 5 mM KCl, 1 mM MgCl2; pH 7.4). Eighty microliters of 37° C. HBS was subsequently added to each well. Test solutions of GlyT2 inhibitors were prepared in HBS from DMSO stock solutions, and 5 μL of test solution was added to each test well. Total transport and non-specific background were determined by adding 5 μL HBS or 5 μL 2 M glycine, respectively, to the appropriate control wells. Plates were then left at rt for 5 min before the addition of 20 μL of 100 μM ^14C-glycine (NEN, NEC 048H) to each well for a final concentration of 20 μM. Plates were incubated for 2 h at 37° C. with 5% CO2. After 2 h the reaction mixtures were removed by aspiration, and the plates were washed once with ice-cold HBS. Plates were sealed with TopSeal (Packard, 6005185) and counted on a Packard TopCount® scintillation counter.
Consider `NCCNC(=O)CC[C@H](Cc1ccccc1)NC(=O)Nc1ccc(Oc2ccccc2)cc1` [Example 111, (R)-4-[3-(4-Phenoxy-phenyl)-ureido]-5-phenyl-pentanoic Acid (2-amino-ethyl)-amide], for which the IC50 (as a rule, the concentration at which inhibition is half-maximal) came to 500 nM.

For the compound `O=C(Nc1cccc(Oc2ccccc2)c1)N[C@@H](Cc1ccccc1)C(=O)NCCCN1CCCC1` [Example 122, (S)-2-[3-(3-Phenoxy-phenyl)-ureido]-3-phenyl-N-(3-pyrrolidin-1-yl-propyl)-propionamide], the IC50 came out at 440 nM.

Take `O=C(Nc1ccc(-c2ccccc2)cc1)N[C@@H](Cc1cccnc1)C(=O)NCCCN1CCCC1` [Example 142, (S)-2-(3-Biphenyl-4-yl-ureido)-3-pyridin-3-yl-N-(3-pyrrolidin-1-yl-propyl)-propionamide]: the IC50 is 685 nM.

`O=C(Nc1ccc(-c2ccccc2)cc1)NC(C(=O)NCCN1CCCC1)(c1ccccc1)c1ccccc1` [Example 143, 2-(3-Biphenyl-4-yl-ureido)-2,2-diphenyl-N-(2-pyrrolidin-1-yl-ethyl)-acetamide] yielded an IC50 of 8000 nM.

The compound `CC(C)[C@@H](CC(=O)NCCN(C(C)C)C(C)C)NC(=O)Nc1ccc(-c2ccccc2)cc1` [Example 146, (R)-3-(3-Biphenyl-4-yl-ureido)-4-methyl-pentanoic Acid (2-diisopropylamino-ethyl)-amide] registered an IC50 of 595 nM.

For `O=C(Nc1cccc(-c2ccccc2)c1)N[C@@H](Cc1ccccc1)C(=O)NCCCN1CCCC1` [Example 150, (S)-2-(3-Biphenyl-3-yl-ureido)-3-phenyl-N-(3-pyrrolidin-1-yl-propyl)-propionamide], the IC50 amounted to 998 nM.

For the compound `NCCCNC(=O)/C=C/[C@H](Cc1ccccc1)NC(=O)Nc1ccc(-c2ccccc2)cc1` [Example 152, (E)-(S)-4-(3-Biphenyl-4-yl-ureido)-5-phenyl-pent-2-enoic Acid (3-amino-propyl)-amide], the IC50 was found to be 3160 nM.

`O=C(Nc1ccc(Oc2ccccc2)cc1)N[C@H](CNCCN1CCCC1)Cc1ccccc1` [Example 157, 1-[(S)-1-Benzyl-2-(2-pyrrolidin-1-yl-ethylamino)-ethyl]-3-(4-phenoxy-phenyl)-urea] returned an IC50 of 181 nM.

`O=C(Nc1ccc(-c2ccccc2)cc1)N[C@@H](CCCNCCN1CCCC1)Cc1ccccc1` [Example 158, 1-[(S)-1-Benzyl-4-(2-pyrrolidin-1-yl-ethylamino)-butyl]-3-biphenyl-4-yl-urea] registered an IC50 of 340 nM.
